Measurements from publication PMC7939381, “MMP activation–associated aminopeptidase N reveals a bivalent 14-3-3 binding motif” (The Journal of Biological Chemistry, 2021).
Where a SMILES comes first, the peptide text is derived from it. [ ]: non-standard residue; d: D form. pT = C[C@@H](OP(=O)(O)O)[C@H](N)C(=O)O; pS = N[C@@H](COP(=O)(O)O)C(=O)O

How the values were obtained:
His6-14-3-3η = assay: pulldown of His6-14-3-3η from E. coli cell lysate with biotinylated peptides; assay type: binding, human; settings: biotinylated peptide on streptavidin beads; NTA-Atto488 stained SDS-PAGE, Fig. 2E
Method: (§1) 14-3-3–overexpressing E. coli cell lysate was prepared by lysing E. coli cells via sonication in pulldown buffer and removing cell debris by ultracentrifugation (53,350 rcf, 45 min, 4 °C). 24 nmol of Streptavidin Sepharose High Performance beads (GE Healthcare) were equilibrated with pulldown buffer (50 mM HEPES, pH 7.4, 250 mM NaCl, 20 mM MgCl2) and incubated with 24 nmol of biotin-1, biotin-6, or no peptide for 45 min on ice. Afterward, the beads were washed three times with pulldown buffer. Subsequently, the beads were incubated for 120 min in the prepared cell lysate. After incubation, beads were washed three times with pulldown buffer and split in half either for direct SDS-PAGE or for competition analysis, respectively. For competition, beads incubated with biotin-1 were incubated with 96 nmol of acetylated peptide 1 for 60 min and washed three times with pulldown buffer. For SDS-PAGE, 6 nmol of beads were added per lane on a Tris-Tricine ([52]) gel and run for 120 min at 150 V. After electrophoresis, gel was fixated for 90 min in a solution of 50% water, 40% EtOH, and 10% acetic acid and consequently washed two times for 30 min in water. Staining of the His6-tagged proteins in the gel was performed in a 1:1000 dilution of a 1 μg/μl solution of NTA-Atto488 (Sigma–Aldrich) for 60 min. Access stain was removed by two washing steps, each 60 min, in water. […]

His6-14-3-3β/α = assay: pulldown of His6-14-3-3β/α from E. coli cell lysate with biotinylated peptides; assay type: binding, human; settings: biotinylated peptide on streptavidin beads; NTA-Atto488 stained SDS-PAGE, Fig. S2B
Method: as §1

14-3-3η [1] = biological target: T1, 14-3-3η (Homo sapiens, UniProt Q04917); assay: isothermal titration calorimetry (ITC) with 14-3-3η; assay type: binding; settings: T = 298 K; peptide per 14-3-3 protomer; mean ± S.D., n = 3
T1 construct: N-terminally His6-tagged 14-3-3 full-length proteins were expressed with heterologous bacterial expression; made in house
T1 sequence (Q04917 1-246): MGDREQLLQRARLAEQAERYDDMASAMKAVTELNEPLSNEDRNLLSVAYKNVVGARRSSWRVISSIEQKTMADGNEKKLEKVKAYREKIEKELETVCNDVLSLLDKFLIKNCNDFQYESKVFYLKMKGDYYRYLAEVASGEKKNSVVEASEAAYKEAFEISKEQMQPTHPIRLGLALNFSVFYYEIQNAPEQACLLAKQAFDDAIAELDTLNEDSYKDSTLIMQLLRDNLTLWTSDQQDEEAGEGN
Method: The ITC experiments were performed on an automated MicroCal iTC200 (Malvern Panalytical). To prepare 14-3-3 proteins for ITC measurements, a buffer exchange to ITC buffer (50 mM HEPES, pH 7.4, 250 mM NaCl, 20 mM MgCl2) was performed on a Superdex 75 10/300 GL column (ÄKTA Pure FPLC system, GE Healthcare). For peptides 1, 7, and 17, a 500 μM solution of protein was titrated to a 50 μM solution of peptide in 18 steps (2-μl volume in 4 s, 180-s spacing) at 25 °C. For peptide 11, a 250 μM solution of protein was titrated to a 12.5 μM solution of peptide with the settings mentioned before. The reference power was set to […], and the stirring speed was set to 750 rpm. Analysis was performed using MicroCal ITC-ORIGIN analysis software.

14-3-3β/α = biological target: T2, 14-3-3β/α (Homo sapiens, UniProt P31946); assay: direct binding FP assay, 14-3-3β/α; settings: FITC-labeled peptide, Fig. 2C and Fig. S1
T2 construct: N-terminally His6-tagged 14-3-3 full-length proteins were expressed with heterologous bacterial expression; made in house
T2 sequence (P31946 1-246): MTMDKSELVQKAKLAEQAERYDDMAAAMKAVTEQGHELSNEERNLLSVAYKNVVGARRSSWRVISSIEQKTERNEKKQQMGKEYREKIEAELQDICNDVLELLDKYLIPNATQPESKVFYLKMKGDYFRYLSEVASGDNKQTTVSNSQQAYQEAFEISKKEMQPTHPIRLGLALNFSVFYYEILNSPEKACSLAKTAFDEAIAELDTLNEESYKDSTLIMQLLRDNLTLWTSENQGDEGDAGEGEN
Method: (§2) For the FP assay, the 14-3-3 proteins were diluted to a protein-specific start concentration in FP buffer (10 mM HEPES, pH 7.4, 150 mM NaCl, 2 mM DTT, 0.01% Tween 20). DMSO stocks of peptides were diluted in FP buffer to a concentration of 30 nM. For the assay, 10 μl of FP buffer were pipetted in 20 wells of a 384-well Corning black round bottom plate. A dilution series with 10 μl of protein solution was performed, and 5 μl of peptide solution was added to each well for a final volume of 15 μl. The plate was incubated for 60 min at room temperature. Measurement was performed at 25 °C in a Tecan Spark20M plate reader (λex = 470 nm, λem = 525 nm). Data analysis was performed with GraphPad Prism (version 5.03), and KD values were determined via a nonlinear regression fit of dose-response curves with variable slope (four parameters).

14-3-3η [2] = biological target: T1, 14-3-3η; assay: direct binding FP assay, 14-3-3η
Method: as §2

14-3-3σ = biological target: T3, 14-3-3σ (Homo sapiens, UniProt P31947); assay: direct binding fluorescence polarization (FP) assay, 14-3-3σ; settings: FITC-labeled peptide; Fig. 2A
T3 construct: N-terminally His6-tagged 14-3-3 full-length proteins were expressed with heterologous bacterial expression; made in house
T3 sequence (P31947 1-248): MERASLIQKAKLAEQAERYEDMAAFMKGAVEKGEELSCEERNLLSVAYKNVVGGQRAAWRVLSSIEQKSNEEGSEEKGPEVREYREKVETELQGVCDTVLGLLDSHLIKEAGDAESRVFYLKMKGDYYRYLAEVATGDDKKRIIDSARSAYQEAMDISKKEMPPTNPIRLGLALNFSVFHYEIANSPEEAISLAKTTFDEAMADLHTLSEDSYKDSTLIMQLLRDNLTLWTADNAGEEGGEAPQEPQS
Method: as §2

Row | Molecule | pulldown of His6-14-3-3η (in words) (His6-14-3-3η) | pulldown of His6-14-3-3β/α (in words) (His6-14-3-3β/α) | binding stoichiometry N (ITC, 14-3-3η) (14-3-3η [1]) | relative affinity of 14-3-3β/α compared with 14-3-3σ (relative affinity = 1) (14-3-3β/α) | relative affinity of 14-3-3η compared with 14-3-3σ (relative affinity = 1) (14-3-3η [2]; FP assay, FITC-labeled peptide, Fig. 2C and Fig. S1) | increase in overall affinity of 7 versus 11 (14-3-3η, FP) (14-3-3η [2]; pThr^63 combined with site 1, Fig. 4A and Fig. S3) | binding toward 14-3-3σ in direct FP assay (in words) (14-3-3σ)
1 | CC(=O)N[C@@H](CC(N)=O)C(=O)N[C@@H](CCCCN)C(=O)N[C@@H](CC(N)=O)C(=O)N[C@@H](C)C(=O)N[C@@H](CC(N)=O)C(=O)N[C@@H](COP(=O)(O)O)C(=O)N[C@@H](CO)C(=O)N1CCC[C@H]1C(=O)N[C@H](C(=O)O)C(C)C [compound 1] (Ac-NKNAN[pS]SPV-OH) | binds specifically | binds specifically | 1.05 ± 0.02 | 5.7 fold | 18.6 fold |  | 
2 | CC(=O)N[C@@H](CCC(=O)O)C(=O)N[C@@H](CCCCN)C(=O)N[C@@H](CC(N)=O)C(=O)N[C@@H](CCCCN)C(=O)N[C@@H](CC(N)=O)C(=O)N[C@@H](C)C(=O)N[C@@H](CC(N)=O)C(=O)N[C@@H](COP(=O)(O)O)C(=O)N[C@@H](CO)C(=O)N1CCC[C@H]1C(=O)N[C@H](C(=O)N[C@@H](C)C(=O)N[C@@H](CO)C(=O)N[C@H](C(=O)N[C@H](C(=O)N1CCC[C@H]1C(=O)N[C@@H](CO)C(=O)N[C@@H](C)C(=O)N[C@@H](CO)C(=O)N[C@@H](C)C(=O)N[C@H](C(=O)N[C@H](C(=O)N[C@@H](CC(N)=O)C(=O)N1CCC[C@H]1C(=O)N[C@@H](C)C(=O)N[C@@H](CO)C(=O)N[C@@H](C)C(=O)N[C@H](C(=O)N[C@H](C(=O)N[C@@H](CC(C)C)C(=O)N[C@@H](CC(=O)O)C(=O)N[C@@H](CCC(N)=O)C(=O)N[C@@H](CO)C(=O)N[C@@H](CCCCN)C(=O)N[C@@H](C)C(=O)N[C@@H](Cc1c[nH]c2ccccc12)C(=O)N[C@@H](CC(N)=O)C(=O)N[C@@H](CCCNC(=N)N)C(=O)O)[C@@H](C)O)[C@@H](C)OP(=O)(O)O)[C@@H](C)O)[C@@H](C)O)[C@@H](C)O)[C@@H](C)O)C(C)C [compound 11] (Ac-EKNKNAN[pS]SPVASTTPSASATTNPASA[pT]TLDQSKAWNR-OH) |  |  | 0.58 ± 0.01 |  |  | ~500 fold | 
3 | KNANSpSPVA [compound 6, APN 39–47 pSer^44 peptide KNANSpSPVA, negative control] |  |  |  |  |  |  | did not show any binding
